# According to US7662896B2, “Fluorochemical sulfonamide surfactants” (3M Innovative Properties Company, priority 1999, dated 2010):
# What was measured:
# [1] = Surface tension in water (Test Procedure I, Kruss K12 Tensiometer); format: physicochemical; conditions: for Surface Tension (dynes/cm) at Various Surfactant Concentrations: 20 ppm: 20 ppm in water; for Surface Tension (dynes/cm) at Various Surfactant Concentrations: 200 ppm: 200 ppm in water; for Surface Tension (dynes/cm) at Various Surfactant Concentrations: 2000 ppm: 2000 ppm in water
# Experimental: Test Procedure I—Surface Tension Determination
# All surface tensions were determined using a Kruss K12 Tensiometer. […] The program was run using a Wilhelmy platinum plate (PL12) and glass sample vessel (GL7).
# [2] = test system: SPF-bred Sprague Dawley rats; experiment: 28-day oral toxicity study by daily gavage in the rat; format: in vivo; conditions: 28 days daily oral gavage; 3 (C8), 10 (C6), 30 (C4) mg/kg body weight/day
# Experimental: (§1) A 28-day oral toxicity study with perfluorooctanesulfonate (C8F17SO3^−) was conducted by daily gavage in the rat followed by 14 and 28 day recovery periods. The dose levels for the study were selected to be 0 mg/kg body weight/day for species control, and 3 mg/kg body weight/day for potassium perfluorooctanesulfonate. The potassium perfluorooctanesulfonate was formulated in 1% aqueous carboxymethyl cellulose and administered daily for 28 days by oral gavage to SPF-bred Sprague Dawley rats. A vehicle control group and a treated group were tested, each consisting of 8 male and 8 female rats. An extra 3 rats per sex per group were allowed 14 days of recovery, and another 3 rats per sex per group were allowed 28 days of recovery.
# [3] = Amount of perfluoroalkylsulfonate in male rat liver tissue (HPLC/ESMS/MS); format: in vivo; conditions: for Amount (ppm) of Sulfonate Day 1N* / Amount (ppm) of Sulfonate Day 1 / Amount (ppm) of Sulfonate Day 14N* / Amount (ppm) of Sulfonate Day 14 / Amount (ppm) of Sulfonate Day 28N* / Amount (ppm) of Sulfonate Day 28: male rat liver; for Amount (ppm) of Sulfonate Day 1N*: normalized to a feeding level of 3 mg/kg body weight per day; for Amount (ppm) of Sulfonate Day 1: day 1 after 28 day dosing at 3 (C8), 10 (C6), 30 (C4) mg/kg/day; for Amount (ppm) of Sulfonate Day 14N* / Amount (ppm) of Sulfonate Day 28N*: normalized to 3 mg/kg body weight per day; for Amount (ppm) of Sulfonate Day 14: day 14 of recovery; for Amount (ppm) of Sulfonate Day 28: day 28 of recovery
# Experimental: as §1
# Extracted liver tissue samples from the sacrificed rats of the study were homogenized and extracted using an ion-pairing extraction procedure. The extracts were quantitatively analyzed using high-pressure liquid chromatography/electrospray tandem mass spectroscopy (HPLC/ESMS/MS) and evaluated.
# [4] = as above; format: in vivo; conditions: for Elimination from the body (in words): rat, tested as potassium salt
# [5] = 28 days following completion of feeding
# [6] = 28 days following completion of feeding, normalized to the same feeding levels
# [7] = immediately following completion of feeding
Surface Tension (dynes/cm) at Various Surfactant Concentrations: 20 ppm [1],Surface Tension (dynes/cm) at Various Surfactant Concentrations: 200 ppm [1],Surface Tension (dynes/cm) at Various Surfactant Concentrations: 2000 ppm [1],SMILES,Observed effects in treated rats [2],Amount (ppm) of Sulfonate Day 1N* [3],Amount (ppm) of Sulfonate Day 1 [3],Amount (ppm) of Sulfonate Day 14N* [3],Amount (ppm) of Sulfonate Day 14 [3],Amount (ppm) of Sulfonate Day 28N* [3],Amount (ppm) of Sulfonate Day 28 [3],also measured
68.5 dynes/cm,57.4 dynes/cm,44.4 dynes/cm,"CN(CC(=O)[O-])S(=O)(=O)C(F)(F)C(F)(F)C(F)(F)C(F)(F)F.[K+] [C4F9SO2N(Et)CH2CO2K, C4F9SO2N(CH3)CH2CO2K]",–,–,–,–,–,–,–,–
48.2 dynes/cm,30.8 dynes/cm,15.5 dynes/cm,"CN(CC(=O)[O-])S(=O)(=O)C(F)(F)C(F)(F)C(F)(F)C(F)(F)C(F)(F)C(F)(F)F.[K+] [C6F13SO2N(Et)CH2CO2K, C6F13SO2N(CH3)CH2CO2K]",–,–,–,–,–,–,–,–
–,–,–,"O=S(=O)(O)C(F)(F)C(F)(F)C(F)(F)C(F)(F)C(F)(F)C(F)(F)F [C6F13SO3^−, perfluorohexanesulfonate]","comparable, but less persistent than those of Comparative Example C22",98 ppm,327 ± 52 ppm,19 ppm,61.9 ± 11.7 ppm,11 ppm,36.3 ± 7.4 ppm,"Factor lower than C8F17SO3^− in liver [3, 5]: 6.5; Factor lower than C8F17SO3^− in liver [3, 6]: 21.5; Factor lower than C8F17SO3^− in liver [3, 7]: 1.3"
–,–,–,"O=S(=O)([O-])C(F)(F)C(F)(F)C(F)(F)C(F)(F)F.[K+] [Example C4F9SO3K, Potassium perfluorobutanesulfonate]","No clear systematic toxicity, nor organ dysfunction at macroscopic or microscopic levels were observed",0.31 ppm,3.09 ± 1.58 ppm,0.0126 ppm,0.126 ± 0.084 ppm,0.0025 ppm,0.025 ± 0.015 ppm,"Factor lower than C6F13SO3^− in liver [4, 5]: > 1400; Factor lower than C6F13SO3^− in liver [4, 6]: 4400; Factor lower than C6F13SO3^− in liver [4, 7]: > 100; Elimination from the body (in words) [4]: unexpectedly fast and effective elimination; Elimination from the body (in words) ([4]; listed as perfluorobutylsulfonate): eliminates from the body much more effectively than perfluorohexylsulfonate and even more effectively than perfluorooctylsulfonate; Surface Tension (dynes/cm) at Various Surfactant Concentrations: 10 ppm ([1]; 10 ppm in water): 70 dynes/cm; Surface Tension (dynes/cm) at Various Surfactant Concentrations: 100 ppm ([1]; 100 ppm in water): 67.5 dynes/cm; Surface Tension (dynes/cm) at Various Surfactant Concentrations: 1000 ppm ([1]; 1000 ppm in water): 53 dynes/cm"
